Like-named read-outs stand apart in the source and are kept apart here.
Legend:
Assay type in all cases: cell-based
[1] = tested on: renal carcinoma cells (786-O); test: In vitro potency (CellTiter-Glo, 96 h), 786-O; settings: Homo sapiens, 786-0, 96 h
Summary of the method: (§1)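 Four-day continuous exposure at 37 °C to serially diluted ADC or free camptothecin payload, in RPMI 1640 with 20% FBS after 24 h pre-plating. Luminescent signal gave IC50 (ng/mL; nmol/L).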

melanoma cells (A2058) = test: In vitro potency (CellTiter-Glo, 96 h), A2058; settings: Homo sapiens, A2058, 96 h
Summary of the method: (§2)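 Growth inhibition after 96 h at 37 °C with test article, measured by luminescence; cells in RPMI 1640, 20% FBS.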

[2] = tested on: pancreatic cancer cells (BxPC3); test: In vitro potency (CellTiter-Glo, 96 h), BxPC3; settings: Homo sapiens, BXPC-3, 96 h
Summary of the method: as §1

[3] = tested on: non-small-cell lung cancer cells (Calu1); test: In vitro potency (CellTiter-Glo, 96 h), Calu1; settings: Homo sapiens, Calu-1, 96 h
Protocol: (§3) In vitro potency was assessed on multiple cancer cell lines. All cell lines were authenticated by STR profiling at IDEXX Bioresearch and cultured for no more than 2 months after resuscitation. Cells cultured in log-phase growth were seeded for 24 hours in 96-well plates containing […] RPMI 1640 supplemented with 20% FBS. Serial dilutions of antibody-drug conjugates in cell culture media were prepared at 4× working concentrations, and 50 μL of each dilution was added to the 96-well plates. Following addition of test articles, cells were incubated with test articles for 4 days at 37 0° C. After 96 hours, growth inhibition was assessed by CellTiterGlo® (Promega, Madison, WI) and luminescence was measured on a plate reader.
In Table 7, IC50 values for ADCs are given in ng/mL. Cell viability was determined by CellTiter-Glo staining after 96 h exposure to ADC. ND=Not Determined. Ag2 is an antibody targeting a ubiquitous and readily internalizable antigen. The cancer cell lines tested are renal carcinoma cells (786-0), melanoma cells (A2058), pancreatic cancer cells (BxPC3), non-small-cell lung cancer cells (Calu1), anaplastic large cell lymphoma cells (DEL, DELBVR, Karpas299), Hodgkin's lymphoma cells (L540cy), (Ls174T), breast cancer cells (MDA-MB-231), acute myeloid leukemia cells (MOLM-13), and B-lymphocyte cancer cells (SU-DHL4).
as §3, with “FBS.” for “FBS. Serial dilutions of antibody-drug conjugates in cell culture media were prepared at 4× working concentrations, and 50 μL of each dilution was added to the 96-well plates.”
Cell viability was determined by CellTiter-Glo staining after 96 h exposure to the compound. ND=Not Determined. The cancer cell lines tested are renal carcinoma cells (786-0), melanoma cells (A2058), pancreatic cancer cells (BxPC3), non-small-cell lung cancer cells (Calu1), anaplastic large cell lymphoma cells (DEL, DELBVR, Karpas299), Hodgkin's lymphoma cells (L540cy), (Ls 174T), breast cancer cells (MDA-MB-231), acute myeloid leukemia cells (MOLM-13), B-lymphocyte cancer cells (SU-DHL4), multiple myeloma cells (MM.1R), (U266), and melanoma cells (SK-MEL-5).
as §3, with “37°” for “37 0°”
In the following Tables IC50 values for ADCs and CPT free drugs are given in ng/mL and nmol/L concentrations. Cell viability was determined by CellTiter-Glo staining after 96 h exposure to ADC or CPT free drug.
Cell viability was determined by CellTiter-Glo staining after 96 h exposure to ADC. ND=Not Determined.

[4] = tested on: anaplastic large cell lymphoma cells (DEL); test: In vitro potency (CellTiter-Glo, 96 h), DEL
Summary of the method: as §2

[5] = tested on: anaplastic large cell lymphoma cells (DELBVR); test: In vitro potency (CellTiter-Glo, 96 h), DELBVR
Summary of the method: as §1

[6] = tested on: anaplastic large cell lymphoma cells (Karpas299); test: In vitro potency (CellTiter-Glo, 96 h), Karpas299; settings: Homo sapiens, KARPAS-299, 96 h
Summary of the method: as §1

[7] = tested on: Hodgkin's lymphoma cells (L540cy); test: In vitro potency (CellTiter-Glo, 96 h), L540cy
Summary of the method: as §1

Ls174T cells = test: In vitro potency (CellTiter-Glo, 96 h), Ls174T; settings: Homo sapiens, LS174T; CPT free drugs, Table 24; CellTiter-Glo after 96 h exposure; read-out: IC50 (nmol/L) Ls174T
Summary of the method: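 Antibody-drug conjugates, prepared as dilution series in culture medium, were added to cells seeded a day earlier in RPMI 1640 supplemented with 20% FBS. After four days at 37 °C, luminescence measured growth inhibition.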

[8] = tested on: breast cancer cells (MDA-MB-231); test: In vitro potency (CellTiter-Glo, 96 h), MDA-MB-231; settings: Homo sapiens, MDA-MB-231, 96 h
Summary of the method: as §1

[9] = tested on: acute myeloid leukemia cells (MOLM-13); test: In vitro potency (CellTiter-Glo, 96 h), MOLM-13; settings: Homo sapiens, MOLM-13, 96 h
Summary of the method: as §1

[10] = tested on: B-lymphocyte cancer cells (SU-DHL4); test: In vitro potency (CellTiter-Glo, 96 h), SU-DHL-4; settings: Homo sapiens, SU-DHL-4, 96 h
Summary of the method: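 Log-phase cells were seeded for 24 h in RPMI 1640 with 20% FBS, then exposed to serially diluted antibody-drug conjugates or free camptothecin drug for 4 days at 37 °C. Growth inhibition was read by luminescence, and IC50 values were reported in ng/mL and nmol/L.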

[11] = CPT free drugs, Table 24, CellTiter-Glo after 96 h exposure, read-out: IC50 (nmol/L) 786-O
[12] = CPT free drugs, Table 24, CellTiter-Glo after 96 h exposure, read-out: IC50 (nmol/L) A2058
[13] = CPT free drugs, Table 24, CellTiter-Glo after 96 h exposure, read-out: IC50 (nmol/L) BxPC3
[14] = CPT free drugs, Table 24, CellTiter-Glo after 96 h exposure, read-out: IC50 (nmol/L) Calu1
[15] = CPT free drugs, Table 24, CellTiter-Glo after 96 h exposure, read-out: IC50 (nmol/L) DEL
[16] = CPT free drugs, Table 24, CellTiter-Glo after 96 h exposure, read-out: IC50 (nmol/L) DELBVR
[17] = CPT free drugs, Table 24, CellTiter-Glo after 96 h exposure, read-out: IC50 (nmol/L) Karpas299
[18] = CPT free drugs, Table 24, CellTiter-Glo after 96 h exposure, read-out: IC50 (nmol/L) L540cy
[19] = CPT free drugs, Table 24, CellTiter-Glo after 96 h exposure, read-out: IC50 (nmol/L) MDAMB231
[20] = CPT free drugs, Table 24, CellTiter-Glo after 96 h exposure, read-out: IC50 (nmol/L) MOLM-13
[21] = CPT free drugs, Table 24, CellTiter-Glo after 96 h exposure, read-out: IC50 (nmol/L) SU-DHL-4

Structure (SMILES)	IC50 [1, 11] [nmol/L]	IC50 (melanoma cells (A2058); [12]) [nmol/L]	IC50 [2, 13] [nmol/L]	IC50 [3, 14] [nmol/L]	IC50 [4, 15] [nmol/L]	IC50 [5, 16] [nmol/L]	IC50 [6, 17] [nmol/L]	IC50 [7, 18] [nmol/L]	IC50 (Ls174T cells) [nmol/L]	IC50 [8, 19] [nmol/L]	IC50 [9, 20] [nmol/L]	IC50 [10, 21] [nmol/L]	also measured
CC[C@@]1(O)C(=O)OCc2c1cc1n(c2=O)Cc2c-1nc1cc3c(cc1c2CN)OCO3 [AMDCPT, (5S)-14-(aminomethyl)-5-ethyl-5-hydroxy-7,18,20-trioxa-11,24-diazahexacyclo[11.11.0.02,11.04,9.015,23.017,21]tetracosa-1(13),2,4(9),14,16,21,23-heptaene-6,10-dione, reference compound]	1.9	0.7	3.6	14.4	0.4	0.8	1.8	1	1	1.4	4.3	1	IC50 ([1]; camptothecin free drug, 96 h, read-out: 786-O IC50): 3 nmol/L; IC50 (melanoma cells (A2058); camptothecin free drug, 96 h, read-out: A2058 IC50): 3 nmol/L; IC50 ([2]; camptothecin free drug, 96 h, read-out: BxPC3 IC50): 3 nmol/L; IC50 ([3]; camptothecin free drug, 96 h, read-out: Calu1 IC50): 52 nmol/L; IC50 ([4]; camptothecin free drug, read-out: DEL IC50): 1 nmol/L; IC50 ([5]; camptothecin free drug, read-out: DELBVR IC50): 1 nmol/L; IC50 ([6]; camptothecin free drug, 96 h, read-out: Karpas299 IC50): 2 nmol/L; IC50 ([7]; camptothecin free drug, read-out: L540cy IC50): 1 nmol/L; IC50 ([8]; camptothecin free drug, 96 h, read-out: MDAMB231 IC50): 21 nmol/L; IC50 ([9]; camptothecin free drug, 96 h, read-out: MOLM-13 IC50): 20 nmol/L; IC50 ([10]; camptothecin free drug, 96 h, read-out: SU-DHL-4 IC50): 2 nmol/L
CC[C@@]1(O)C(=O)OCc2c1cc1n(c2=O)Cc2c-1nc1ccc(C)cc1c2CN [Compound 2a]	7	3	20	42	1	3	9	4	3.9	5	29	4	
CC[C@@]1(O)C(=O)OCc2c1cc1n(c2=O)Cc2c-1nc1cc(C)c(F)cc1c2CN [Compound 2aa]	265	130	> 1000	> 1000	82	87	380	> 1000	240	> 1000	> 1000	227	
CC[C@@]1(O)C(=O)OCc2c1cc1n(c2=O)Cc2c-1nc1cc(Cl)c(C)c(F)c1c2CN [Compound 2ab]	6	3	12	22	2	3	7	4	6	30	53	4	
CC[C@@]1(O)C(=O)OCc2c1cc1n(c2=O)Cc2c-1nc1cc(F)cc(F)c1c2CN [Compound 2ac]	9	3	16	68	2	3	8	4	7	51	17	4	

— patent US20240207427A1, “SELECTIVE DRUG RELEASE FROM INTERNALIZED CONJUGATES OF BIOLOGICALLY ACTIVE COMPOUNDS” (priority 2021, published 2024)
